{"source": "patent US9636299B2", "about": "“Method for treating diabetic retinopathy” (XAVIER UNIVERSITY OF LOUISIANA, priority 2012, dated 2017)", "key": {"zona occludin 1 (ZO-1)": {"test_system": "zona occludin 1 (ZO-1)", "test": "Streptozotocin-induced diabetic mice, retinal ZO-1 immunohistochemistry", "type": "in vivo, mouse", "conditions": "14 consecutive days, vs untreated diabetic", "description": "Streptozotocin (STZ) induced diabetes. Twelve week old C57Bl/6 mice were used for this study. Mice were induced to have diabetes by intraperitoneal injection of 170 μg/g of streptozotocin (Sigma Aldrich, St. Louis, Mo.). Controls were injected with a vehicle (0.01M sodium citrate buffer). On the third day after STZ treatment, mice tail veins were bled to test the hyperglycemic status using blood sugar detection kit (Lifescan; Johnson & Johnson, Milpitas, Calif.). Mice with blood sugar levels of >300 mg/dL on the third day after STZ treatment were considered diabetic. Eye drop treatment containing 1% apoEdp or vehicle PBS was continued 4 times a day for 14 consecutive days. Intra-peritoneal (i/p) injection containing 40 mg/kg of apoEdp or vehicle control PBS was administered once daily for 14 consecutive days. On the 15th day post-treatment, mice were euthanized, their eyes enucleated, and the retinas dissected out to use for mRNA or Western blot analysis.\nImmunohistochemistry. […]\nTo investigate the effect of apoEdp on attenuation of ZO-1 loss, immunohistochemical detection of ZO-1 was performed in formalin-fixed de-paraffinized sections of mouse retinas of different experimental groups. […] The number of positive cells was determined in the high-power field (×400) for the retinas."}, "occludin": {"test_system": "occludin", "test": "Streptozotocin-induced diabetic mice, retinal occludin mRNA by real-time RT-PCR", "type": "in vivo, mouse", "conditions": "14 days, vs diabetic non-treated", "description": "RNA Extraction, Reverse Transcription, & PCR. Following euthanasia, mouse eyes were enucleated and placed immediately into RNAlater® RNA stabilization reagent (Qiagen, Hilden, Germany). Intraocular fluids were aspirated and pooled, and total cellular RNA was isolated using an RNeasy® Mini Kit (Qiagen) according to the manufacturer's instructions. Gene expression was measured at RNA level per 100 ng of total RNA using one-step RT-PCR kit (Bio-Rad, Hercules, Calif.). Four host genes (mouse GAPDH, mouse MMP2, mouse HPSE-1 (heparanase-1), and mouse MMP9) were analyzed to confirm relative quantitative expression levels. The primer pairs used were specifically designed and synthesized by Qiagen GmbH, Hilden, Germany (Quantitech Primer assay kit, for each host gene, catalog numbers QT01658692, QT00088396, QT00009555, and QT00040040, respectively). One-step Real-time quantitative RT-PCR reactions were performed in a 50-μL volume containing a solution of 1× supermix (iQ SYBR Green; Bio-Rad, Hercules, Calif.), 1 μM mix of forward and reverse primers, and 5 μL total RNA. A four-step protocol was used: denaturation, 3 minutes at 95° C.; amplification and quantification, 40 cycles of 15 seconds at 95° C. followed by 30 seconds at 60° C.; melting curve, 60 to 95° C. with a heating rate of 0.5° C. per second; followed by cooling (MyiQ Single Color Real-Time PCR Detection System; Bio-Rad). […]"}}, "note": "Residues, ends and D or L forms follow the SMILES beside them."}
{"compound": "CC(=O)N[C@@H](CC(C)C)C(=O)N[C@@H](CCCNC(=N)N)C(=O)N[C@@H](CCCCN)C(=O)N[C@@H](CC(C)C)C(=O)N[C@@H](CCCNC(=N)N)C(=O)N[C@@H](CCCCN)C(=O)N[C@@H](CCCNC(=N)N)C(=O)N[C@@H](CC(C)C)C(=O)N[C@@H](CC(C)C)C(=O)N[C@@H](CC(C)C)C(=O)N[C@@H](CCCNC(=N)N)C(=O)N[C@@H](CCCCN)C(=O)N[C@@H](CC(C)C)C(=O)N[C@@H](CCCNC(=N)N)C(=O)N[C@@H](CCCCN)C(=O)N[C@@H](CCCNC(=N)N)C(=O)N[C@@H](CC(C)C)C(=O)N[C@@H](CC(C)C)C(N)=O", "note": "[apoEdp, Ac-LRKLRKRLLLRKLRKRLL-amide] (Ac-LRKLRKRLLLRKLRKRLL-NH2)", "values": [{"measurement": "Number of ZO-1 positive cells in retina (high-power field ×400)", "setting": "zona occludin 1 (ZO-1); i/p injections 40 mg/kg", "value": "significantly increased the number of positive cells"}, {"measurement": "Number of ZO-1 positive cells in retina (high-power field ×400)", "setting": "zona occludin 1 (ZO-1); topical 1% apoEdp drops", "value": "significantly increased the number of positive cells"}, {"measurement": "Down-regulation of occludin-specific mRNA in retina", "setting": "occludin; 1% apoEdp eye drop 4 times a day", "value": "significantly inhibited the down-regulation"}, {"measurement": "Down-regulation of occludin-specific mRNA in retina", "setting": "occludin; i/p injection 40 mg/kg daily", "value": "significantly inhibited the down-regulation"}]}
